Laboratory results as given in patent US20100286415A1, “SLEEP-IMPROVING AGENT” (OSAKA BIOSCIENCE INSTITUTE, priority 2007, published 2010).

Key:
[1] = system: Slc:ICR mice; assay: Locomotor assay (amount of locomotion) in mice, infrared monitor (Test Example 2); assay type: in vivo, mouse; conditions: 100 mg/kg oral, administered at start of dark period, compared to vehicle (water), FIG. 2
Experimental: Slc:ICR mice (male, 10 weeks old, weighing 38-40 g) were purchased from Japan SLC, Inc.
The mice were housed in groups (8 mice per group) in acrylic cages placed in a chamber for monitoring the amount of animal behavior, and were habituated for 7 days. They were given solid rat food (food name: Labo MR Stock) in a 12-hour light and dark cycle (light period starting at 7 a.m.), with free access to food and drinking water.
Oxypinnatanine was dissolved in water, and a dosage weight of 100 mg/kg was orally administered using a probe. Administration was carried out at 19:00 (starting time of a dark period). On day 1, water was solely administered as a control containing only the solvent. On day 2, oxypinnatanine was administered (n=8).
An infrared monitor was used to detect infrared light emitted from the animals to count the amount of locomotion. The infrared monitor recorded continuously for 12 hours. Recording was conducted using a Biotex 16CH Act Monitor BAI2216 (Biotex). For analysis, the time-dependent change in the amount of locomotion and the total amount of locomotion in each hour were calculated.

[2] = system: Sprague-Dawley rats; assay: EEG/EMG sleep recording in rats after oral administration (Test Example 1); assay type: in vivo, rat; conditions: 100 mg/kg oral, administered at start of dark period, compared to vehicle (water), FIG. 1
Experimental: Sprague-Dawley rats (male, 8 weeks old, weighing 250-280 g) were purchased from Japan SLC, Inc.
The rats were individually housed in acrylic cages placed in a sound insulation chamber. They were given solid rat food (food name: Labo MR Stock) in a 12-hour light and dark cycle (light period starting at 7 a.m.), with free access to food and drinking water.
An operation to implant electrodes for measuring EEG/EMG was performed on the rats (Huang Z. L. et al., J. Neurosci. 2003, 23(14), 5975-83., Okada T. et al., Biochem. Biophys. Res. Commun. 2003, 312(1), 29-34). The rats were placed in a chamber for recovery for 10 days, and recovered. Then, the rats were moved to a chamber for recording, and measurement cables were connected to the electrodes. The rats were adapted to the environment for 4 days.
Oxypinnatanine was dissolved in water, and a dosage of 100 mg/kg was orally administered using a probe. Administration was carried out at 19:00 (starting time of a dark period). […]
The EEG and EMG were amplified (EEG: 0.5-30 Hz, EMG: 20-200 Hz), and then digitalized at a sampling speed of 128 Hz for recording. […] EEG data over 12 hours after administration were analyzed. Then, waking time, non-REM sleep time, and REM sleep time per hour were calculated. Further, the EEG power spectrum was analyzed, and the amplitudes of theta waves and delta waves were thereby analyzed.

[3] = system: C57BL/6 mice; assay: EEG/EMG sleep recording in mice after oral administration (Test Example 3); assay type: in vivo, mouse; conditions: 10 mg/kg oral, administered at start of dark period, compared to vehicle (water), FIG. 3
Experimental: C57BL/6 mice (male, 10 weeks old, weighing 25-28 g) were purchased from Oriental BioService Inc.
The mice were individually housed in acrylic cages placed in a sound insulation chamber. They were given solid mouse food (food name: Labo MR Stock) in a 12-hour light and dark cycle (light period starting at 8 a.m.), with free access to food and drinking water.
An operation to implant electrodes for measuring EEG/EMG was performed on the mice. The mice were placed in a chamber for recovery for 10 days, and recovered. Then, the mice were moved to a chamber for recording, and measurement cables were connected to the electrodes. The mice were adapted to the environment for 4 days.
Oxypinnatanine was dissolved in water, and a dosage of 10 mg/kg was orally administered using a probe. Administration was carried out at 20:00 (starting time of a dark period). On day 1, water was solely administered as a control containing only the solvent. On day 2, oxypinnatanine was administered (n=4).
The EEG and EMG were amplified (EEG: 0.5-30 Hz, EMG: 20-200 Hz), and then digitalized at the sampling speed of 128 Hz for recording. […] EEG data over 12 hours after administration were analyzed. Then, waking time, non-REM sleep time, and REM sleep time per hour were calculated. Further, the EEG power spectrum was analyzed, and the amplitudes of theta waves and delta waves were thereby analyzed.

| SMILES | melting point | Total amount of locomotion during 6 hours after administration [1] | Total non-REM sleep time during 6 hours after administration [2] | Total non-REM sleep time during 4 hours after administration [3] |
| --- | --- | --- | --- | --- |
| NC(CC(O)C(=O)NC1OCC=C1CO)C(=O)O (stereo not shown) (hydrate or solvate) [Oxypinnatanine, oxypinnatanine] | 152 to 153 °C (dec.) |  |  |  |
| NC(CC(O)C(=O)NC1OCC=C1CO)C(=O)O (stereo not shown) [Oxypinnatanine, oxypinnatanine] |  | statistically significant decrease in the amount of locomotion | effect of increasing non-REM sleep time | effect of increasing non-REM sleep time with statistical significance |
